The source of these data is US10813929B2, “Treating cancer with ATR inhibitors” (VERTEX PHARMACEUTICALS INCORPORATED, priority 2011, dated 2020).

Each structure is given as a SMILES string.

Test [1] relates to MiaPaCa pancreatic cancer xenograft. The test is described as follows: MiaPaCa pancreatic cancer xenograft model with ionizing radiation. Format: in vivo. To be noted: FIG. 13.
The test system of test [2] is primary adenocarcinoma NSCLC xenograft. Kind of test: Primary adenocarcinoma NSCLC xenograft model. Format: in vivo, SCID mice. To be noted: VE-822 60 mg/kg po qd4 with cisplatin 1 or 3 mg/kg ip q7d; FIG. 20. Here is the method:
Tumor tissue was excised from a patient with a poorly differentiated adenocarcinoma. This tumor tissue was implanted subcutaneously in the flank of a SCID mouse and passaged twice before compound testing. For compound testing passage-two tumor tissue was implanted subcutaneously in the flank of SCID mice and tumors grown to a volume of about 200 mm^3 Cisplatin was dosed alone at either 1 or 3 mg/kg ip, once per week (ip, q7d, on day 2 of each week) for two weeks. VE-822 was dosed as a solution alone at 60 mg/kg po on 4 consecutive days per weekly cycle (qd4, dosed on days 1, 2, 3 and 4 each week). Two combination groups received cisplatin at 1 or 3 mg/kg plus VE-822 at 60 mg/kg po on the same schedule as the single agent group. A control group received vehicle alone (10% Vitamin E TPGS in water, po qd4). All drug treatment was stopped on Day 28. Vehicle, cisplatin (1 mg/kg) and VE-822 (60 mg/kg) groups were sacrificed and the remainder monitored for a further 40 days to assess tumor re-growth.
Data are mean±sem, n=9-10. […]

Test [3] relates to PSN1 pancreatic cancer xenografts. The test is described as follows: PSN1 pancreatic cancer xenograft model with gemcitabine. The class given is in vivo, female nude MF1 mice. To be noted: VE-822 PO q2d 10, 30 or 60 mg/kg with gemcitabine 15 mg/kg IP q3d; FIG. 21. As to the method: PSN1 cells (1×10^6 cells per mouse) were implanted as a mixture in Matrigel (100 μl per mouse) into the flank of female nude MF1 mice and grown to a volume of about 200 mm^3 prior to compound administration. Gemcitabine was dosed alone at 15 mg/kg ip, once every three days (ip, q3d) in 0.5% methylcellulose in water for a maximum of 10 cycles. VE-822 was dosed, as a suspension in 0.5% methylcellulose in water, alone at either 10, 30 or 60 mg/kg po every other day for 28 days (po q2d). Three combination groups received gemcitabine at 15 mg/kg plus VE-822 either at 10, 30 or at 60 mg/kg po on the same schedule as the single agent groups. A control group received vehicle alone (0.5% methylcellulose ip q3d). All drug treatment was stopped on Day 30. Vehicle and VE-822 groups were sacrificed on day 13 due to excessive tumor volumes.
Data shown are mean tumor volume±SEM (n=8 per group). Red filled circles are VE-822 treatment; Black filled squares are vehicle treatment; Green filled circles are gemcitabine treatment; Blue filled circles are gemcitabine and VE-822 (10 mg/kg) treatment; Red filled circles are gemcitabine and VE-822 (30 mg/kg) treatment; Pink filled circles are gemcitabine and VE-822 (60 mg/kg) treatment;

Test [4] has as its system PSN-1, MiaPaCa-2 and PancM cells. Kind of test: Clonogenic survival assay, pancreatic cancer cells. Format: cell-based. Here is the method:
PSN-1 cells were plated as single cells, treated with 1 μM VE-821 at different time points in relation to 4 Gy irradiation and assessed for colony formation after 10 days. The survival fraction at 4 Gy for each of the treatment schedules was determined by taking into account the relevant plating efficiency of unirradiated cells. Cells were treated with 1 μM VE-821 4 h after plating and 1 h prior to irradiation. Drug was removed after 72 h and colony-forming ability was assessed after 10 to 21 days. (n=3). *, P<0.05; **, P<0.01 over DMSO-treated control. A) clonogenic survival curves of cells treated with 1 μM VE-821 and irradiation under hypoxic conditions. Plated cells were transferred to hypoxia (0.5% O2) and acclimatised for 6 h. VE-821 (1 μM) was then added at 1 h prior to irradiation and left for 72 h upon which the medium was replaced. Cells were transferred to normoxia at 1 h post-irradiation. B) clonogenic survival of cells after irradiation with 6 Gy and treatment with 1 μM VE-821 in oxic and hypoxic (0.5% O2) conditions, as described above and in FIG. 1 (n=3). *, P<0.05; **, P<0.01; ***, P<0.001 over DMSO-treated control. A) clonogenic survival of cells treated with gemcitabine and 1 μM VE-821. Cells were treated with increasing concentrations of gemcitabine for 24 h followed by 72 h treatment of 1 μM VE-821. Colony forming ability was assessed after 10 to 21 days. B) clonogenic survival of cells treated with gemcitabine in hypoxia. Plated cells were transferred to hypoxia (0.5% O2) and acclimatised for 6 h. Cells were then treated with increasing concentrations of gemcitabine for 24 h followed by 72 h treatment of 1 μM VE-821. Hypoxic cells were transferred to normoxia 1 h after VE-821 addition. C) clonogenic survival after treatment with 20 nM gemcitabine and VE-821 in oxic and hypoxic (0.5% O2) conditions, as described above. D) clonogenic survival of cells treated with gemcitabine and irradiation. PSN-1 and MiaPaCa-2 cells were treated with 5 nM or 10 nM gemcitabine, respectively, for 24 h, medium was then replaced and 1 μM VE-821 was added from 1 h prior to 72 h post 4 Gy irradiation. Colony forming ability was assessed after 10 to 21 days (n=3). *, P<0.05; **, P<0.01; ***, P<0.001 over DMSO-treated control. Logarithmically growing cells were plated in triplicate in 6-well tissue culture dishes under oxic (21% O2) or hypoxic conditions (0.5% O2) using an InVivo2 300 chamber (Ruskinn Technology, UK). […] Cells were incubated for 10-21 days until colonies were stained with 0.5% crystal violet and counted in a CellCount automated colony counter (Oxford Optronix). Clonogenic survival was calculated and data were fitted in the GraphPad Prism 4.0 (GraphPad Software, CA).

For `CNCc1ccc(-c2cc(-c3nc(-c4ccc(S(=O)(=O)C(C)C)cc4)cnc3N)on2)cc1` [VE-822], the “antitumor effects of ionizing radiation (tumor volume over time)” value in test [1] is listed as “enhances the antitumor effects of ionizing radiation”. For the same compound, the “antitumor effects of cisplatin (tumor volume)” value in test [2] is recorded as “enhances the antitumor effects of cisplatin”. Also, in test [3], the “antitumor effects of gemcitabine (tumor volume)” value is on record as “enhances the antitumor effects of gemcitabine”.
In the case of `CS(=O)(=O)c1ccc(-c2cnc(N)c(C(=O)Nc3ccccc3)n2)cc1` [VE-821], the “radiosensitisation under hypoxic conditions (clonogenic survival)” value in test [4] (1 μM VE-821, hypoxia 0.5% O2, FIG. 2 panels A-B) was “radiosensitises tumour PSN-1, MiaPaCa-2 and PancM cells under hypoxic conditions”. In test [4] (1 μM VE-821 for 72 h after 24 h gemcitabine, oxic and hypoxic (0.5% O2), FIG. 3 panels B-C), the “sensitisation to gemcitabine (clonogenic survival)” value was “sensitises normoxic and hypoxic cancer cells to gemcitabine”. Moreover, the “potentiation of chemoradiation (clonogenic survival)” value in test [4] (PSN-1 and MiaPaCa-2, 5 or 10 nM gemcitabine, 1 μM VE-821, 4 Gy, FIG. 3 panel D) is reported as “potentiates the effect of chemoradiation”. For the same compound, the “surviving fraction after irradiation” value in test [4] (PSN-1 cells, 1 μM VE-821, 4 Gy, effect increased as drug incubation time after irradiation was extended, FIG. 1 panel C) is “a decrease in surviving fraction was observed”.
